Results as given in US20170088601A1, “CD133 EPITOPES” (CEDARS-SINAI MEDICAL CENTER, priority 2008, published 2017).

Key:
[1] = system: HLA-A2 and CD133 positive cancer stem cells (CSC4); test: IFN-γ ELISA of peptide-stimulated CTLs against cancer stem cells; format: cell-based, human; settings: ELISA of supernatant
Description: (§1) The binding of the peptide-primed CTLs to HLA-A2 positive human cells was also tested. To generate dendritic cells, the plastic adherent cells from PBMCs were cultured in AIM-V medium supplemented with recombinant human GM-CSF and recombinant human IL-4 at 37° C. in a humidified incubator with 5% CO2. Six days later, the immature dendritic cells were stimulated with recombinant human TNF-alpha for maturation. Mature dendritic cells were then harvested on day 8, resuspended in PBS at 1×10^6/mL with the indicated peptides (2 μg/mL), and incubated for 2 hours at 37° C. Autologous PBMCs (2×10^6 per well) were cocultured with 2×10^5 per well peptide-pulsed dendritic cells in 2 mL/well of AIM-V medium supplemented with 5% human AB serum and 10 units/mL rhIL-7 (Cell Sciences) in each well of 24-well tissue culture plates.
(§2) On the next day and then every 3 days thereafter, 300 IU/ml of IL-2 was added to the medium. On day 7, lymphocytes were restimulated with autologous dendritic cells in AIM-V medium supplemented with 5% human AB serum, rhIL-2, and rhIL-7 (10 units/mL each). To generate peptide-specific CTLs, CD8 (+) T cells were isolated from healthy donors, then stimulated by autologous DC pulsed with peptide. After three cycle stimulations, these CTLs could efficiently recognize both HLA-A2 and CD133 positive cancer stem cells, as measured by amount of IFN-γ (pg/ml) in supernatant detected by ELISA (Table 2). However, they could not recognize the CD133 positive normal neural stem cells due to their absence of MHC expression.

[2] = target: T1, HLA-A2 molecules (HLA-A*0201) on T2 cells (Homo sapiens, UniProt P04439, D140Y/D185E/D98H/E176V/E277Q/G131W/G231S/I119V/I121R/I166T/I218V/L300P/L318F/N151K/N90K/P208A/P217A/Q86G/Q94H/R138H/R169H/T345S); test: Binding of peptides to HLA-A2 and stability of HLA-A*0201/peptide complexes on T2 cells (BB7.2 mAb staining)
T1 construct: mean fluorescence of peptide preincubated T2 cells; endogenous in cells; host or cells: T2 cells
Description: The cells were then incubated with Brefeldin A (Sigma, St. Louis, Mo.) at 10 μg/ml for 1 hour, washed, incubated at 37° C. for 0, 3, or 6 hours in the presence of Brefeldin A (0.5 μg/ml), and then stained with BB7.2 mAb. […] DC50 was defined as the time required for the loss of 50% of the HLA-A*0201/peptide complexes stabilized at t=0.

[3] = system: CD8 (+) T cells from healthy donors; test: HLA-A*0201/peptide tetramer staining of peptide-induced CTLs, flow cytometry; format: cell-based, human
Description: To generate peptide-specific CTLs, CD8 (+) T cells were isolated from healthy donors, then stimulated by autologous DC pulsed with peptide. Specific T cells were generated after PBMCs were stimulated by autologous DC pulsed with irradiated, apoptotic cancer stem cells (CSCs). Phycoerythrin-conjugated HLA-A*0201/peptide tetramers were synthesized. The cells were stained with tetramers (5 ng/ml) in PBS+0.5% human AB serum for 1 hour at room temperature, washed once in the same buffer, stained with anti-human CD8-FITC (BD Biosciences) mAbs for 30 minutes at 4° C. followed by flow cytometry analysis.

T2 cells = test: IFN-γ ELISA of peptide-stimulated CTLs against peptide-pulsed T2 cells; format: cell-based, human; settings: ELISA of supernatant
Description: as §1, §2

[4] = target: T2, HLA-A2 molecules on T2 cells (Homo sapiens, UniProt P04439, D140Y/D185E/D98H/E176V/E277Q/G131W/G231S/I119V/I121R/I166T/I218V/L300P/L318F/N151K/N90K/P208A/P217A/Q86G/Q94H/R138H/R169H/T345S); test: Binding of mouse CD133 peptide to HLA-A2 on T2 cells (BB7.2 mAb, flow cytometry); settings: 0 μM, 10 μM or 100 μM peptide overnight
T2 construct: mean fluorescence of peptide preincubated T2 cells; endogenous in cells; host or cells: T2 cells
Description: The mouse counterpart of SEQ ID NO:1, […] (SEQ ID NO:11) also bound to HLA-A2, despite having only two amino acid residues in common. T2 cells were incubated overnight with 0 μM, 10 μM, or 100 μM of SEQ ID NO:11. The cells were then incubated with Brefeldin A (Sigma, St. Louis, Mo.) at 10 μg/ml for 1 hour, washed, incubated at 37° C. in the presence of Brefeldin A ([…]), and then stained with BB7.2 mAb. Fluorescence intensity was measured by flow cytometry.

DC50 (time required for the loss of 50% of the HLA-A*0201/peptide complexes stabilized at t=0) ([2]; 100 μM peptide) [h] | Binding to HLA-A2 / HLA-A*0201 molecules (in words) ([2]; listed as SEQ ID NO:1) | Binding to HLA-A2 / HLA-A*0201 molecules (in words) ([2]; listed as peptide 405) | Cell fluorescence (binding to HLA-A2) [4] | Sequence | IFN-γ induced by PBMC stimulus for CTL generation, target CSC4 [1] [pg/mL] | Tetramer positive cell ([3]; CD8+ T cells stimulated by autologous DC pulsed with peptide, PE HLA-A*0201/peptide tetramer and anti-CD8-FITC) [%] | Immunogenicity (in words) ([3]; overall conclusion of Example 1) | IFN-γ induced by PBMC stimulus for CTL generation, target T2 + 117 (T2 cells) [pg/mL] | IFN-γ induced by PBMC stimulus for CTL generation, target T2 + 301 (T2 cells) [pg/mL] | IFN-γ induced by PBMC stimulus for CTL generation, target T2 + 405 (T2 cells) [pg/mL] | IFN-γ induced by PBMC stimulus for CTL generation, target T2 + 708 (T2 cells) [pg/mL] | IFN-γ induced by PBMC stimulus for CTL generation, target T2 + 804 (T2 cells) [pg/mL] | IFN-γ induced by PBMC stimulus for CTL generation, target T2 only (T2 cells) [pg/mL]
>6 | bound strongly | binds relatively strongly |  | ILSAFSVYV (Homo sapien) [CD133-405] | 2311 | 3.72 | highly immunogenic | 334 | 311 | 2450 | 394 | 390 | 289
 |  |  |  | FLLPALIFAV (Homo sapien) [CD133-804] | 450 |  |  | 275 | 148 | 294 | 247 | 409 | 211
 |  |  |  | GLLERVTRI (Homo sapien) [CD133-708] | 403 |  |  | 281 | 234 | 326 | 286 | 258 | 206
 |  |  | increased in a dose-dependent manner | MLLQVSHYL (Mus Musculus) [SEQ ID NO:11] |  |  |  |  |  |  |  |  | 
 |  |  |  | SLNDPLCLV (Homo sapien) [CD133-301] | 390 |  |  | 174 | 165 | 185 | 214 | 252 | 179
 |  |  |  | LLFIILMPLV (Homo sapien) [CD133-117] | 262 |  |  | 322 | 247 | 262 | 192 | 336 | 275
